Laboratory results reported in US12410164B2, “Heterocyclic compounds and medical use thereof” (FONDAZIONE TELETHON, priority 2018, dated 2025).

Target: F508del-CFTR (Homo sapiens, UniProt P13569, DEL508-508)
Assay: HS-YFP kinetic fluorescence (iodide quenching rate) assay in CFBE41o− cells
Type: cell-based
Design: expressed in transfected cells; host or cells: CFBE41o- cells with expression of F508del-CFTR and HS-YFP (generated as in Sondo et al. 2011)
Conditions: for AI (%) additivity index / AI additivity index: compound at 10 μM plus VX-809; for AI additivity index: Table 3; for structure-activity comparison of corrector potency/activity: relative to the analogue
Method: CFBE41o- cells, with expression of F508del-CFTR and halogen-sensitive fluorescent protein, were generated as previously described (Sondo E, et al. Am J Physiol. 2011, 301, […]-[…]). For the test, the cells were seeded in 96-well microplates using a culture medium consisting of DMEM and Ham's F12 (1:1) supplemented with 10% foetal bovine serum. After 24 hours from seeding, the cells were treated for another 24 hours with the test compounds dissolved in the culture medium at the desired concentrations. As a negative control, the solvent of the compounds (dimethyl sulfoxide, DMSO) dissolved in the medium with the same dilution ratio (final percentage of DMSO:0.1-0.2%) was used. As a positive control, the corrector VX-809 (Selleck Chemicals, […]) was used at a concentration of 1 μM. After treatment, the medium with the compounds was removed and the cells were stimulated with forskolin (Sigma-Aldrich, F6886) 20 μM plus genistein (Sigma-Aldrich, G6649) 50 μM (in 60 μl of PBS saline) to maximally activate the CFTR channels present in the membrane. In a microplate reader (FLUOstar-Omega, BMG) the fluorescence of the cells in each well was read for 14 seconds, with an injection of 165 μl of a iodide-enriched saline (modified PBS where NaCl, 137 mM, has been replaced with the same concentration of NaI). The iodide transport activity in each well was evaluated by subtraction of the background fluorescence (measured in a well without cells), subsequent normalization with respect to the initial fluorescence and finally by interpolation of the fluorescence quenching phase with an exponential function that allows the derivation of the maximum slope (quenching rate, QR). The activity of the synthesized compounds was initially evaluated on the CFBE41o- cell line with expression of the mutated F508del-CFTR protein described above (Sondo E, et al. Am J Physiol. 2011, 301, […]-[…]). For this purpose, a functional assay based on the fluorescent YFP protein sensitive to halides, HS-YFP, was used (Galietta L J, et al. J Biol Chem. 2001, 276, 19723-19728). The fluorescence of the HS-YFP protein is turned off by iodide. Therefore, if exposed to a solution containing iodide, cells with HS-YFP expression show a quenching speed of the fluorescence which depends on the presence and activity of anionic channels. Under control conditions, the mutated CFTR protein presents a serious defect of stability and maturation, so it remains trapped in the endoplasmic reticulum not reaching the cell surface in enough quantity. In the HS-YFP-based assay, this defect results in a low anion transport capacity and therefore in a low quenching rate (QR). Treatment for a prolonged time (e.g. 24 hours) with a corrector determines an improvement in protein maturation with an increase in the number of CFTR channels present in the membrane and therefore an increase in the flux of iodide and QR. In a first phase, the authors screened about 200 heterocyclic molecules with various nitrogenated tricyclic scaffolds. Conditions previously described have been used for screening (Sondo E, et al. Am J Physiol. 2011, 301, […]-[…]) and reported herein in the Materials and Methods section. A threshold equal to the average value plus three times the standard deviation of the QR of wells without compounds (only DMSO in the culture medium) was used as a criterion for the selection of active compounds.

[1] = Table 1, (QRTOT − QRVX)/QRVX, HS-YFP assay

F508del-CFTR, sequence (P13569 with tags, fused parts or gaps DEL508-508): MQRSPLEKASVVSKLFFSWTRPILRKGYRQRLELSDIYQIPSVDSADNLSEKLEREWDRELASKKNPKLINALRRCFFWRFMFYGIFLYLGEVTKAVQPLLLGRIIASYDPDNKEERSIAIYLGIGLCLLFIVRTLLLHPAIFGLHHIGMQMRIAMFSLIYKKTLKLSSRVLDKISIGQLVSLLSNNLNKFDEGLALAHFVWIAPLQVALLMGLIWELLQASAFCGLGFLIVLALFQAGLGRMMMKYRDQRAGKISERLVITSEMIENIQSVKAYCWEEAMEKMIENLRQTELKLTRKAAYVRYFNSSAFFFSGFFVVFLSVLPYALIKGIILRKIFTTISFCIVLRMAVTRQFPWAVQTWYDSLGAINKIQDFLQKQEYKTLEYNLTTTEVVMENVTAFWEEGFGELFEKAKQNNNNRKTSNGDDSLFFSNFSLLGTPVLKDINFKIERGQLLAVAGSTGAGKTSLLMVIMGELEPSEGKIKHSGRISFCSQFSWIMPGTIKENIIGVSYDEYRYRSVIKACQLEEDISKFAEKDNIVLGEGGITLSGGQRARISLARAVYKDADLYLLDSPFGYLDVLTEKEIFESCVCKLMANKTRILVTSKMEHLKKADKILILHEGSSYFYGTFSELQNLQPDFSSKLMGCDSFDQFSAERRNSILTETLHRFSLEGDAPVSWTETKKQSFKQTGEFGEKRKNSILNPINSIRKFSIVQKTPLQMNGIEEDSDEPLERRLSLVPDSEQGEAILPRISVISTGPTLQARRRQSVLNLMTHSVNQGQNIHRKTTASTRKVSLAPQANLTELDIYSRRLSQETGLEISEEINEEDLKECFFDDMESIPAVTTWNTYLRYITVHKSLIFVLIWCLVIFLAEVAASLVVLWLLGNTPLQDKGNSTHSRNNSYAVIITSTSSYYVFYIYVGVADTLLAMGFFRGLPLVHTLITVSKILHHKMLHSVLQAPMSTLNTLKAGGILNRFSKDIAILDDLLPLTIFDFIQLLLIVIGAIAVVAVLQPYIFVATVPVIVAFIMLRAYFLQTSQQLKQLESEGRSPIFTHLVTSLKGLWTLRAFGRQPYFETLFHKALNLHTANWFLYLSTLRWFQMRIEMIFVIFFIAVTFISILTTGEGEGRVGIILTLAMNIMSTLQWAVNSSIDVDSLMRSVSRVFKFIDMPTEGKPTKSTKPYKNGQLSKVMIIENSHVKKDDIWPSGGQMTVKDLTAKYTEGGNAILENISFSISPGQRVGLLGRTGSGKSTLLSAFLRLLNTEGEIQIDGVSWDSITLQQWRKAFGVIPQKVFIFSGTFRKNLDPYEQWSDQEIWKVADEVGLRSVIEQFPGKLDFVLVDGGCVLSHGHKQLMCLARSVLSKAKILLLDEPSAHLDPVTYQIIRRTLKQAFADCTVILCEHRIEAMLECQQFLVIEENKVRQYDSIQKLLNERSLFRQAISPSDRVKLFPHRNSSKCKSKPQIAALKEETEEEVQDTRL

| AI (%) additivity index [1] [%] | SMILES | also measured |
| --- | --- | --- |
|  | CCOC(=O)c1c(Br)cc2n1CCCc1cc(S(=O)(=O)c3ccccc3)c(=O)[nH]c1-2 [QZN6, Ethyl 3-(benzenesulfonyl)-10-bromo-2-oxo-1,5,6,7-tetrahydro-2H-pyrido[2,3-c]pyrrolo[1,2-a]azepine-9-carboxylate] | AI (%) additivity index (Table 4, (QRTOT − QRVX)/QRVX): 136% |
| 11 | Cc1ccc(Cn2c(C(N)=O)c(Br)c3c2-c2[nH]c(=O)c(S(=O)(=O)c4ccccc4)cc2CC3)cc1 [PP089, 7-(Benzenesulfonyl)-3-bromo-1-[(4-methylphenyl)methyl]-8-oxo-4,5,8,9-tetrahydro-1H-pyrrolo[3,2-h]quinoline-2-carboxamide] |  |
|  | CCOC(=O)c1ccc2n1CCc1cnc(NC3CCCC3)nc1-2 [QZQ14, Ethyl 2-(cyclopentylamino)-5,6-dihydropyrimido[5,4-g]indolizine-8-carboxylate] | AI (%) additivity index (Table 5, (QRTOT-QRVX)/QRVX): 18% |
|  | CC(C)OC(=O)c1ccc2n1CCCc1cc(S(=O)(=O)c3ccccc3)c(=O)[nH]c1-2 [QZN13, Propan-2-yl 3-(benzenesulfonyl)-2-oxo-1,5,6,7-tetrahydro-2H-pyrido[2,3-c]pyrrolo[1,2-a]azepine-9-carboxylate] | AI (%) additivity index (Table 4, (QRTOT − QRVX)/QRVX): 8% |
|  | CCOC(=O)c1ccc2n1CCCc1cc(S(=O)(=O)c3ccccc3)c(=O)[nH]c1-2 [QZN5, Ethyl 3-(benzenesulfonyl)-2-oxo-1,5,6,7-tetrahydro-2H-pyrido[2,3-c]pyrrolo[1,2-a]azepine-9-carboxylate] | AI (%) additivity index (Table 4, (QRTOT − QRVX)/QRVX): 19% |
| 133 | COC(=O)c1c(Br)c2c(n1Cc1ccccc1C)-c1[nH]c(=O)c(S(=O)(=O)c3ccccc3)cc1CC2 [PP032, Methyl 3-bromo-1-(2-methylbenzyl)-8-oxo-7-(phenylsulfonyl)-4,5,8,9-tetrahydro-1H-pyrrolo[3,2-h]quinoline-2-carboxylate] |  |
| 47 | Cc1cccc(Cn2c(C(=O)NS(=O)(=O)c3ccccc3)c(Br)c3c2-c2[nH]c(=O)c(S(=O)(=O)c4ccccc4)cc2CC3)c1 [PP100, N,7-di(benzenesulfonyl)-3-bromo-1-[(3-methylphenyl)methyl]-8-oxo-4,5,8,9-tetrahydro-1H-pyrrolo[3,2-h]quinoline-2-carboxamide] |  |
| 53 | Cc1cccc(Cn2c(C(=O)NC(C)C)cc3c2-c2[nH]c(=O)c(S(=O)(=O)c4ccccc4)cc2CC3)c1 [PP083, 7-(Benzenesulfonyl)-1-[(3-methylphenyl)methyl]-8-oxo-N-(propan-2-yl)-4,5,8,9-tetrahydro-1H-pyrrolo[3,2-h]quinoline-2-carboxamide] |  |
| 249 | Cc1cccc(Cn2c(C(=O)NC(C)(C)C)c(Br)c3c2-c2[nH]c(=O)c(S(=O)(=O)c4ccccc4)cc2CC3)c1 [PP101, 7-(Benzenesulfonyl)-3-bromo-N-tert-butyl-1-[(3-methylphenyl)methyl]-8-oxo-4,5,8,9-tetrahydro-1H-pyrrolo[3,2-h]quinoline-2-carboxamide] |  |
|  | CCOC(=O)c1cc2c(n1Cc1ccc(C)cc1)-c1nc(NS(=O)(=O)c3ccccc3)ncc1CC2 [SVQ9, Ethyl 2-[(benzenesulfonyl)amino]-9-[(4-methylphenyl)methyl]-6,9-dihydro-5H-pyrrolo[3,2-h]quinazoline-8-carboxylate] | AI additivity index ((QRTOT-QRVX)/QRVX): 98% |
| 148 | CCOC(=O)c1cc2c(n1Cc1ccc(Br)cc1)-c1[nH]c(=O)c(S(=O)(=O)c3ccccc3)cc1CC2 [PP060, Ethyl 7-(benzenesulfonyl)-1-[(4-bromophenyl)methyl]-8-oxo-4,5,8,9-tetrahydro-1H-pyrrolo[3,2-h]quinoline-2-carboxylate] |  |
| 38 | Cc1ccc(Cn2c(C(=O)O)c(Br)c3c2-c2[nH]c(=O)c(S(=O)(=O)c4ccccc4)cc2CC3)cc1 [PP079, 7-(Benzenesulfonyl)-3-bromo-1-[(4-methylphenyl)methyl]-8-oxo-4,5,8,9-tetrahydro-1H-pyrrolo[3,2-h]quinoline-2-carboxylic acid] |  |
|  | Cc1cc(=O)oc2c1cc(C)c1occ(C)c12 [TMA, 4,6,4′-trimethylangelicin, reference compound] | corrective activity of TMA (50-500 nM, 1 and 10 μM, with and without VX-809 1 μM, FIG. 4): ineffective at all concentrations |
|  | CCOC(=O)c1nn(Cc2cccc(C)c2)c2c1CCc1cc(S(=O)(=O)c3ccccc3)c(=O)[nH]c1-2 [PZ3, Ethyl 7-(benzenesulfonyl)-1-[(3-methylphenyl)methyl]-8-oxo-4,5,8,9-tetrahydro-1H-pyrazolo[4,3-h]quinoline-3-carboxylate] | AI (%) additivity index (Table 6, (QRTOT-QRVX)/QRVX): 163% |
| 114 | CCOC(=O)c1c(Br)c2c(n1Cc1ccc(C)cc1C)-c1[nH]c(=O)c(S(=O)(=O)c3ccccc3)cc1CC2 [PP033, Ethyl 7-(benzenesulfonyl)-3-bromo-1-[(2,4-dimethylphenyl)methyl]-8-oxo-4,5,8,9-tetrahydro-1H-pyrrolo[3,2-h]quinoline-2-carboxylate] | structure-activity comparison of corrector potency/activity: reduction in activity compared to PP008 |
|  | CCOC(=O)c1cc2c(n1Cc1cccc(C)c1)-c1nc(NS(=O)(=O)c3ccccc3)ncc1CC2 [SVQ11, Ethyl 2-[(benzenesulfonyl)amino]-9-[(3-methylphenyl)methyl]-6,9-dihydro-5H-pyrrolo[3,2-h]quinazoline-8-carboxylate] | AI additivity index ((QRTOT-QRVX)/QRVX): 151% |
|  | CC(=O)Nc1ncc2c(n1)-c1ccc(C(=O)OC(C)C)n1CCC2 [QZQ26, Propan-2-yl 2-acetamido-6,7-dihydro-5H-pyrimido[4,5-c]pyrrolo[1,2-a]azepine-9-carboxylate] | AI (%) additivity index (Table 5, (QRTOT-QRVX)/QRVX): 2% |
| 244 | CCOC(=O)c1c(Cl)c2c(n1Cc1ccc(C)cc1)-c1[nH]c(=O)c(S(=O)(=O)c3ccccc3)cc1CC2 [PP076, Ethyl 7-(benzenesulfonyl)-3-chloro-1-[(4-methylphenyl)methyl]-8-oxo-4,5,8,9-tetrahydro-1H-pyrrolo[3,2-h]quinoline-2-carboxylate] |  |
| 103 | Cc1cccc(Cn2c(C(=O)Nc3cc(C(C)(C)C)on3)c(Br)c3c2-c2[nH]c(=O)c(S(=O)(=O)c4ccccc4)cc2CC3)c1 [PP102, 7-(Benzenesulfonyl)-3-bromo-N-(5-tert-butyl-1,2-oxazol-3-yl)-1-[(3-methylphenyl)methyl]-8-oxo-4,5,8,9-tetrahydro-1H-pyrrolo[3,2-h]quinoline-2-carboxamide] |  |
| 335 | CCOC(=O)c1c(Br)c2c(n1Cc1ccc(C)c(C)c1)-c1[nH]c(=O)c(S(=O)(=O)c3ccccc3)cc1CC2 [PP037, Ethyl 7-(benzenesulfonyl)-3-bromo-1-[(3,4-dimethylphenyl)methyl]-8-oxo-4,5,8,9-tetrahydro-1H-pyrrolo[3,2-h]quinoline-2-carboxylate] | structure-activity comparison of corrector potency/activity: increase in potency compared to PP008 |
| 374 | Cc1cccc(Cn2c(C(=O)OC(C)C)c(Br)c3c2-c2[nH]c(=O)c(S(=O)(=O)c4ccccc4)cc2CC3)c1 [PP104, Propan-2-yl 7-(benzenesulfonyl)-3-bromo-1-[(3-methylphenyl)methyl]-8-oxo-4,5,8,9-tetrahydro-1H-pyrrolo[3,2-h]quinoline-2-carboxylate] |  |
| 208 | Cc1cccc(Cn2c(C(=O)NC(C)C)c(Br)c3c2-c2[nH]c(=O)c(S(=O)(=O)c4ccccc4)cc2CC3)c1 [PP091, 7-(Benzenesulfonyl)-3-bromo-1-[(3-methylphenyl)methyl]-8-oxo-N-(propan-2-yl)-4,5,8,9-tetrahydro-1H-pyrrolo[3,2-h]quinoline-2-carboxamide] |  |
